Source: patent US5416087A, “Bis-benzo, cyclohepta piperidylidene, piperidine and piperazine compounds, compositions and methods of use” (priority 1993, dated 1995)

Legend:
[1] = system: PAF-induced platelet aggregation; assay: Platelet aggregation assay (PAF-induced aggregation of human platelet-rich plasma); format: cell-based; details: 2 min, human PRP, PAF 1-5×10^-8 M, 37° C., 2 min. incubation, read-out: PAF Antagonism (in vitro) IC50
Protocol: Platelet-activating factor (PAF) causes aggregation of platelets by a receptor-mediated mechanism. Therefore, PAF-induced platelet aggregation provides a simple and convenient assay to screen compounds for PAF antagonism.
Blood was centrifuged at 110×g for 15 min. and the supernatant platelet-rich plasma (PRP) carefully transferred into a polypropylene tube. Platelet-poor-plasma (PPP) was prepared by centrifuging PRP at 12,000×g for 2 min. (Beckman Microfuge B). PRP was used within 3 hr. of drawing the blood.
PAF was dissolved in chloroform:methanol (1:1, v/v) at a concentration of 2 mg/ml and stored at -70° C. An aliquot of this solution was transferred to a polypropylene tube and dried under a flow of nitrogen gas. […] This stock solution was further diluted to appropriate concentrations in Hepes-saline-BSA buffer. Collagen (Sigma) and adenosine diphosphate (ADP) (Sigma) were purchased as solutions. Test compounds were initially dissolved in dimethyl sulfoxide (DMSO) at a concentration of 50 mM and then further diluted in Hepes-saline-BSA buffer to achieve appropriate concentrations.
When an aggregating agent such as PAF is added to PRP, platelets aggregate. An aggregometer quantifies this aggregation by measuring and comparing light (infra-red) transmission through PPP and PRP. […]

[2] = system: PAF (agonist bronchospasm); assay: PAF-induced bronchospasm in guinea pigs; format: in vivo, Male Hartley guinea pigs; details: dose 10 mg/kg oral, PAF 0.4 μg/kg i.v.
Protocol: (§1) Male Hartley guinea pigs (450-550 g) were obtained from Charles River Breeding Laboratories. The animals were fasted overnight and the following day were anesthetized with 0.9 ml/kg i.p. of dialurethane (containing 0.1 g/ml diallylbarbituric acid, 0.4 g/ml ethylurea and 0.4 g/ml urethane). The left jugular vein was cannulated for the administration of compounds. The trachea was cannulated and the animals were ventilated by a rodent respirator at 55 strokes/min. with a stroke volume of 4 ml. A side arm to the tracheal cannula was connected to a pressure transducer to obtain a continuous measure of inflation pressure. Bronchoconstriction was measured as the percent increase in inflation pressure that peaked within 5 min. after challenge with spasmogen. […] Each animal was challenged with only a single spasmogen. The effect of a compound on the bronchospasm is expressed as a percent inhibition of the increase in inflation pressure compared to the increase in a control group.

[3] = system: Histamine (agonist bronchospasm); assay: Histamine-induced bronchospasm in guinea pigs; format: in vivo, Male Hartley guinea pigs; details: dose 1 mg/kg oral, histamine 10 ug/kg i.v.
Protocol: as §1

Row | IC50 [1] | Structure (SMILES) | PAF Agonist Bronchospasm (in vivo) - oral, % Inhibition [2] | Histamine Agonist Bronchospasm (in vivo) - oral, % Inhibition [3]
1 | 2500 nM | O=C(c1cc[n+]([O-])cc1)N1CCN(C2c3ccccc3-c3ccccc32)CC1 [Example 8] |  | 
2 |  | CCOC(=O)N1CCC(=C2c3ccc(Cl)cc3CCc3cccnc32)CC1 [Compound 1] | < 50% | > 50%
